In paper PMC8284461, “Piperidine-4-Carboxamides Target DNA Gyrase in Mycobacterium abscessus” (Antimicrobial Agents and Chemotherapy, 2021):
Values after ≈ are worked out from the molar mass of the structure shown. Where two headings read alike, the source gives them in different places.

Key:
[1] = In vivo mouse pharmacokinetics; conditions: CD-1 mice
Procedure: All animal experiments were approved by the Center for Discovery and Innovation, Institutional Animal Care and Use Committee, and were conducted in compliance with their guidelines. Female CD-1 mice were weighed and received a single dose of […] via the intravenous (i.v.) (5 mg/kg of body weight), oral (p.o.) (25 mg/kg), or subcutaneous (s.c.) (25 mg/kg) dosing route. The compound was formulated as a solution in 5% N,N-dimethylacetamide (DMA)/95% Milli-Q water vehicle. Blood samples were serially collected via the tail snip from each individual mouse at 0.017, 0.25, 1, 3, 5, and 8 h postdose following i.v. dosing and at 0.5, 1, 3, and 5 h postdose following p.o. and s.c. dosing. Blood (50 μl) was collected in capillary Microvette K2EDTA tubes (16.444.100; Sarstedt, Inc.) and kept on ice prior to centrifugation at 1,500 × g for 5 min. The supernatant (plasma) was transferred into a 96-well plate and stored at −80°C.
Liquid chromatography-tandem mass spectrometry (LC-MS/MS) analysis was performed on a Sciex Applied Biosystems Qtrap 6500+ triple-quadrupole mass spectrometer coupled to a Shimadzu Nexera 2 high-pressure liquid chromatography (HPLC) system to quantify each drug in plasma. Neat 1 mg/ml DMSO stocks for 844-TFM were serial diluted in 50:50 acetonitrile (ACN)/water to create standard curves and quality control (QC) spiking solutions. Standards and QCs were created by adding 10 μl of spiking solutions to 90 μl of drug-free plasma (CD-1 K2EDTA Mouse; Bioreclamation IVT). Twenty microliters of control, standard, QC, or study sample were added to 200 μl of ACN/methanol (MeOH) 50:50 protein precipitation solvent containing internal standard (10 ng/ml verapamil). Extracts were vortexed for 5 min and centrifuged at 4,000 rpm for 5 min. One hundred microliters of supernatant was transferred for HPLC-MS/MS analysis and diluted with 100 μl of Milli-Q deionized water.
Chromatography was performed on an Agilent Zorbax SB-C8 column (2.1 × 30 mm; particle size, 3.5 μm) using a reverse-phase gradient. Milli-Q deionized water with 0.1% formic acid was used for the aqueous mobile phase and 0.1% formic acid in ACN for the organic mobile phase. Multiple-reaction monitoring of precursor/product transitions in electrospray positive-ionization mode was used to quantify the analytes. The following multiple reaction monitoring (MRM) transitions were used for 844-TFM (459.10/133.00) and verapamil (455.4/165.2). Sample analysis was accepted if the concentrations of the quality control samples were within 20% of the nominal concentration. Data processing was performed using Analyst software (version 1.6.2; Applied Biosystems Sciex).

[2] = test system: M. abscessus complex strains; assay: MIC across reference strains and clinical isolates; type: cell-based, Mycobacterium abscessus
Procedure: MIC was determined using the broth microdilution method in 96-well plates as described previously ([47]). Briefly, a 10-point 2-fold serial dilution of compounds was performed in 96-well plates (Costar 3370; Corning, USA) starting at twice the desired highest concentration. […] One hundred microliters of the bacterial suspension was seeded onto the 96-well plates containing 100 μl of the serially diluted compounds to give a final volume of 200 μl in each well with the final OD600 of 0.005. The plates were sealed with parafilm, placed onto wet paper towels in a lock-lock box and incubated for 3 days at 37°C with orbital shaking at 90 rpm. […] Absorbance values at day 3 were subtracted from the day 0 readout. Percent growth inhibition was calculated by dividing the absolute absorbance value of treated cells with untreated control and multiplying by 100. CLR was included in all MIC experiments as a positive control to monitor assay reproducibility. MIC was defined as 90% of growth inhibition relative to untreated controls.

[3] = female, mouse, plasma, iv, i.v. 5 mg/kg, average (SD)

For `COc1ccc2nccc(NC(=O)C3CCN(CCc4ccc(C(F)(F)F)cc4)CC3)c2n1` [844-TFM], the V ([1]; i.v. 5 mg/kg, average (SD)) was 0.811 (0.221) liter/kg, the clearance [1, 3] was 10.6 mL/min/kg and the k el [1, 3] was 0.000192 s⁻¹. It also gave an AUC ([1]; female, mouse, plasma, iv, i.v. 5 mg/kg, average (SD), read-out: AUC i.v.) of 5630 ng·h/mL, a half-life ([1]; female, mouse, plasma, iv, i.v. 5 mg/kg, average (SD), read-out: elimination half-life (converted)) of 1.03 h and a bioavailability ([1]; female, mouse, plasma, oral, p.o. 25 mg/kg vs i.v. 5 mg/kg, read-out: p.o. bioavailability) of 0.05 to 0.2%. The bioavailability ([1]; female, mouse, plasma, po, p.o. 25 mg/kg vs i.v. 5 mg/kg, read-out: p.o. bioavailability) was 0.15%, the AUC ([1]; female, mouse, plasma, po, p.o. 25 mg/kg, average (SD), read-out: AUC p.o.) was 58 ng·h/mL and the bioavailability ([1]; female, mouse, plasma, sc, s.c. 25 mg/kg vs i.v. 5 mg/kg, read-out: s.c. bioavailability) was 3%. The AUC ([1]; female, mouse, plasma, sc, s.c. 25 mg/kg, average (SD), read-out: AUC s.c.) was 1170 ng·h/mL, the MIC ([2]; Mycobacteroides abscessus, reference strains and clinical isolates of Table 1, read-out: MICs ranging across the M. abscessus complex strains) was 1.5 to 6 µM (≈ 0.688 to 2.75 µg/mL) and the “fold more potent than 844” value ([2]; whole-cell potency relative to 844) was roughly 8 fold.
